Source: patent US12569465B2, “Method for activating follicles by means of using small-molecule compound, and preparation thereof” (TSINGTAO A-SMART MEDICAL TECHNOLOGY CO., LTD., priority 2020, dated 2026)

How the values were obtained:
[1] = system: primordial and primary follicles; conditions: rodents; prior studies; cited from earlier work
[2] = system: 10-12 month old C57bl/6 ovaries; experiment: Ovulation stimulation experiment in old mice; type: in vivo, mouse; conditions: 80 mg/kg intraperitoneal, 5 days, then PMSG/hCG
Protocol: 10-12 month old C57bl/6 […] were divided into experimental and control groups according to body weight, and the experimental group was weighed and injected intraperitoneally with 80 mg/kg of VCD, while the control group was given the same volume of saline. After 5 days of continuous administration, 5 units of PMSG were injected to the experimental group and the control group, and 10 IU of hCG was injected 48 hours later to induce secondary ovulation. Mice were executed 16 hours after hCG injection, and both oviducts were collected and placed in M2 dissecting solution (Cat #M7167, Sigma), and the oocyte-granulosa cell complexes were seen when cutting the dilated oviducts under a dissecting microscope. The granulosa cell complexes from each mouse were transferred to a droplet of hyaluronidase (Cat #90101, Fujifilm Irvine Scientific) and the number of eggs per mouse was counted under a microscope after the granulosa cells around the oocytes had been digested.
According to the method described in Example 1, 10-12 month old C57bl/6 […] were divided into experimental and control groups according to their body weight, and the experimental group was weighed and injected intraperitoneally with 80 mg/kg of VCD, while the control group was given the same volume of saline. […]

[3] = system: PD12 mouse ovaries (secondary follicles); experiment: In vitro culture of PD12 mouse ovaries, secondary follicle counting; type: cell-based; conditions: 4 days with VCD 1-1000 nM, compared to control group
Excerpt: (§1) Neonatal 2-day (PD2) or 12-day (PD12) C57bl/6 mice (provided by Shandong University Experimental Animal Center) were executed by decapitation and the ovaries and surrounding tissues were dissected and separated under a dissecting microscope, and the excised ovaries were placed in Leibovitz's L-15 medium (containing 10% fetal bovine serum+0.5% penicillin+0.5% streptomycin). The adipose tissue was dissected and separated. The separated ovaries were washed three times in PBS.
(§2) Configure ovarian medium: 1 mg/ml bovine serum albumin (BSA, Cat #A4161-1G, Sigma), 1 mg/ml AbluMAX II Lipid-Rich BSA (Cat #11021029, Gibco), 5% Insulin-Transferrin-Selenium (ITS-G) (Cat #41400-045, Gibco), 0.5% Penicillin+0.5% Streptomycin and 100 nM VCD were added into DMEM/F12 (Cat #11039-021, Gibco) medium. The prepared medium was mixed and added to a six-well plate with 1.5 ml of medium per well. A sieve (Cat #PICMORG50, Millipore) was put on the medium and placed in the incubator to preheat.
(§3) The separated ovaries were transferred to the ovarian medium with a pipette, washed three times and placed on the upper sieve of the pre-warmed medium. A drop of medium was added around the ovaries in the upper sieve to keep the area around the ovaries moist. The six-well plates were placed in a 37° C., 5% CO2 incubator for four consecutive days, and the lower layer of medium was changed daily. […]

aromatase [4] = experiment: Aromatase expression in KGN cells; type: cell-based, human; conditions: VCD 1-1000 nM, 24 h
Excerpt: (§4) anti-rabbit aromatase (Cat #NBP1-45360, Novus, 1:2000), anti-rabbit phosphor-AKT (Serine 473) (D9E) (Cat #4060, Cell Signaling, 1:500), anti-rabbit phosphor-FoxO1 (Threonine 24)/FoxO3a (Threonine 32) (Cat #9464, Cell Signaling, 1:500), anti-rabbit phosphor-P-S6 (Serine 235/236) (Cat #4858, Cell Signaling, 1:1000), anti-rabbit phosphor-P-S6 (Serine 240/244) (Cat #2215, Cell Signaling, 1:1000), anti-rabbit phosphor-P70S6k (Threonine 389) (Cat #9205, Cell Signaling, 1:1000), anti-rabbit (Cat #7074S, CST) or anti-mouse (Cat #7076S, CST).
(§5) Human-derived granulocyte-like cell line KGN (provided by Prof. Toshihiko Yanase, Fukuoka University, Japan) was cultured in DMEM/F12 medium. KGN were treated with different concentrations of VCD (0, 1 nM, 10 nM, 100 nM, 1000 nM) for 24 h, using 50 ng/ml FSH as control.

[5] = system: PD2 mouse ovaries (primordial follicles); experiment: In vitro culture of PD2 mouse ovaries, follicle counting; type: cell-based; conditions: VCD 1-1000 nM on first day of culture, then 3 days normal medium, compared with control group
Excerpt: as §1, §2, §3

KGN cells = experiment: Estradiol (E2) levels in KGN cell culture supernatants (ELISA); type: cell-based, human; conditions: 24 h, versus control group
Protocol: KGN cell supernatants were collected after 24 hours of cell culture for the detection of E2 levels. The procedure of the assay followed the instructions of the E2 Assay Kit (Human Estradiol (E2) ELISA Kit, Cat #KAQ0621, Invitrogen).
as §5

aromatase [6] = experiment: Aromatase expression in primary mouse granulosa cells; type: cell-based; conditions: PD20 primary granulosa cells; VCD 1-1000 nM, 24 h
Excerpt: as §4
Granulosa cells were isolated from the ovaries of PD20 mice according to the method described by Reddy P et al, Science 2008, 319(5863):611-613 and Liu Y X et al Biol Reprod 1986, 35(1):27-36, from which primary granulosa cell lines were obtained. They were treated with different concentrations of VCD (0, 1 nM, 10 nM, 100 nM, 1000 nM) for 24 h, using 50 ng/ml FSH as control.

[7] = system: PD12 C57bl/6 female mice ovaries; experiment: Follicle development in neonatal mice in vivo; set-up: species or system mouse; conditions: 20 or 160 mg/kg intraperitoneal, 5 consecutive days, compared to saline control
Protocol: PD12 C57bl/6 mice in the same litter were divided into experimental and control groups according to body weight. The experimental mice were weighed and given either 20 mg/kg or 160 mg/kg of VCD by intraperitoneal injection, while the control mice were given the same volume of saline. After […] of continuous administration, the mice were executed and the ovaries were dissected to separate the adipose tissue under the microscope and fixed in 4% PFA. Dehydrated sections were used to observe and count the development of follicles in the ovaries at different times.
According to the method described in Example 1, the same litter of PD12 C57bl/6 female mice was divided into experimental and control groups according to body weight and given 20 mg/kg or 160 mg/kg of VCD by intraperitoneal injection, while the control mice were given the same volume of saline. Each group (N=6) was administered for 5 consecutive days, and then the mice were executed and the collected ovaries were stained to observe the morphology as shown in FIG. 3A (yellow arrows indicate early sinus follicles and red arrows indicate sinus follicles).

PI3K-Akt pathway = experiment: Western blot for phosphorylation of proteins associated with follicle activation in the ovary; type: cell-based; conditions: PD2 mouse ovaries; 10 nM VCD for 2-3 min in vitro
Protocol: PD2 mice were dissected in autopsy solution (Leibovitz's L-15 medium, […], Gibco; +10% fetal bovine serum (FBS)) after execution, washed twice in ovarian medium and incubated in ovarian medium. After incubation in medium with or without VCD for 3 min. ovarian tissue was collected and lysed in RIPA lysis solution (Cat #89900, Thermo) for digestion. Proteins were denatured and separated by SDS PAGE and transferred to PVDF membranes (Millipore). The membranes were incubated with primary antibodies followed by incubation with HRP-conjugated secondary antibodies and the bands were examined using an enhanced chemiluminescence detection kit (Bio-Rad).
as §4
Two-day-old (PD2) mouse ovaries were isolated and cultured in vitro according to the method described in Example 1. […]

For `C1CC2OC2CC1C1CO1` (stereo not shown) [VCD, 4-vinylcyclohexene diepoxide], the ovotoxicity to follicles [1] is listed as “induces atretic degeneration of primordial and primary follicles”, the “follicle counts (sinus follicles, corpus luteum) in ovaries” value [2] is listed as “more sinus follicles as well as newly formed corpus luteum” and the MII oocytes ovulated ([2]; versus saline control) is listed as “more oocytes”. The “number of secondary follicles” value [3] was “significantly increased”, the “expression level of aromatase in KGN” value (aromatase [4]) was “significantly increased” and the “number of primordial follicles and early primary follicles” value [5] was “significantly increased”. The “level of estrogen (E2) in cell supernatant” value (KGN cells) was “significantly higher”, the “expression level of aromatase in mouse granulosa cells” value (aromatase [6]) was “significantly increased” and the “follicles close to the preovulatory stage in the ovaries” value [7] was “more follicles close to the preovulatory stage”. The “activation of PI3K-Akt pathway (phosphorylation of involved proteins, Western blot)” value (PI3K-Akt pathway) was “significantly activate”.
